# In patent publication EP0018019A1, “Antimicrobial water-soluble compound which contains a rare earth metal cation, its application in oral compositions and method for controlling microorganisms therewith” (priority 1979, dated 1980):
# Like-named read-outs stand apart in the source and are kept apart here.
# Columns and labels:
# E. coli [1] = assay type: cell-based; settings: for effectiveness as component of the antimicrobial compositions: other polyvalent metals in place of the rare earth, tested in the foregoing manner; for Log Survivors/ml: approximately 10^7 E. coli/ml, 10 min. at 37°C
# Salmonella typhimurium = assay: Minimum Bactericidal Concentration of LaLAS; assay type: cell-based; settings: Gram-negative
# Description: (§1) The data are from standard tests for measuring Minimum Bactericidal Concentrations (using a 10-minute contact with the test agent at 37°C; representing at least 3 log unit reduction in viable cell count).
# Staph. aureus ATCC 6538 = assay: Minimum Bactericidal Concentration of LaLAS; assay type: cell-based; settings: Gram-positive
# Description: as §1
# Proteus vulgaris = assay: Minimum Bactericidal Concentration of LaLAS; assay type: cell-based; settings: Gram-negative
# Description: as §1
# [2] = test system: Kleb. pneumoniae ATCC 4352; assay: Minimum Bactericidal Concentration of LaLAS; assay type: cell-based; settings: Gram-negative
# Description: as §1
# [3] = test system: Staph. epidermidis ATCC 14990; assay: Minimum Bactericidal Concentration of LaLAS; assay type: cell-based; settings: Gram-positive
# Description: as §1
# E. coli ATCC 11775 = assay: Minimum Bactericidal Concentration of LaLAS; assay type: cell-based; settings: Gram-negative
# Description: as §1
# Strep. faecalis = assay: Minimum Bactericidal Concentration of LaLAS; assay type: cell-based; settings: Gram-positive
# Description: as §1
# [4] = test system: Ps. aeruginosa ATCC 15442; assay: Minimum Bactericidal Concentration of LaLAS; assay type: cell-based; settings: Gram-negative
# Description: as §1
# Bacillus subtilis = assay: Minimum Bactericidal Concentration of LaLAS; assay type: cell-based; settings: Gram-positive
# Description: as §1
# [5] = test system: Micrococcus luteus ATCC 4698; assay: Minimum Bactericidal Concentration of LaLAS; assay type: cell-based; settings: Gram-positive
# Description: as §1
# [6] = Stain test on pellicle-coated plastic artificial molars (coffee/tea); settings: for Stain Grade: 0-8 scale (0 no stain, 8 continuous dark brown stain); for promotion of stains: demonstrated by the stain test
# Description: Plastic artificial molars were mounted in the caps of disposable plastic vials using dental cement. A thin, organic pellicle was developed on the teeth by exposure for about 17 hours to pooled human saliva which has been centrifuged for 2 minutes at 500X gravity to remove food and similar debris. The coated teeth were serially exposed for 5 minutes to a solution of the test material, a distilled water rinse, for 5 minutes to a solution of instant coffee and tea (20 grams of commercial instant coffee and 2 grams of commercial instant tea in 1 liter of distilled water), a distilled water rinse, the test solution for 5 minutes, a distilled water rinse, the coffee/tea solution for 5 minutes, and a final distilled water rinse. The teeth were then graded for degree of staining on a 0-8 scale (where 0 was no stain and 8 was continuous dark brown stain) by comparison with a photographic standard.
# dental plaque = assay: In vitro growth of dental plaque on extracted human teeth in growth chambers; assay type: cell-based; settings: plaque-inhibiting solutions for one minute each morning and afternoon, four days; compared with water-treated controls
# Source text: The efficacy of the antimicrobial composition LaLAS was compared with the known anti-plaque agent chlorhexidine digluconate for the prevention of dental plaque, as follows: • Lanthanum 4-(1'-methylnonyl)benzenesulfonate (LaLAS) was used in this test to reduce the in vitro growth of dental plaque on teeth. This was done using a system of glass growth chambers containing clean, extracted, sound human teeth mounted in stainless steel brackets. After sterilization in an autoclave, the growth chambers were inoculated with homogenized human plaque scrapings and serially treated with Trypticase® soy broth, sucrose, artificial saliva, and solutions of plaque-inhibiting materials for four days: The plaque-inhibiting solutions were introduced for one minute each morning and afternoon. After this treatment, the teeth were withdrawn from the growth chambers, stained with an alcoholic solution of basic fuchsin to disclose any plaque that had formed and, after randomization, graded for percent plaque coverage by three trained judges. Percent plaque reduction was calculated by comparison with water-treated controls. [formula]
# E. coli [7] = assay: Minimum Bactericidal Concentration test; assay type: cell-based; settings: 10-minute contact at 37°C
# Description: as §1
# S. aureus = assay: Minimum Bactericidal Concentration test; assay type: cell-based; settings: 10-minute contact at 37°C
# Description: as §1
# Staphylococcus = settings: cited from earlier work
# molds = settings: cited from earlier work
# [8] = Antimicrobial activity of rare earth/surfactant combinations; assay type: cell-based; settings: in combination with a rare earth
# Description: as §1
# [9] = Water solubility / precipitation from solution; assay type: physicochemical; settings: in combination with a rare earth
# Source text: Moreover, the compounds herein or their rare earth metal components precipitate from solution at pH's above about 8. See: Moeller and Kremers, Chem. Rev. 37:114 (1945). Moreover, highly acid (below about pH 4) solutions of the surfactants herein have antimicrobial properties in their own right. Of course, compositions intended for oral use should have a pH above about 4 to avoid damage to dental enamel. With certain species of microorganisms, especially with Pityrosporum ovale which is the causative microorganism for dandruff, the compositions herein are optimally active in the pH range of 4.0-4.5.
# The present invention specifically encompasses the more water-soluble, antimicrobially-active rare earth/alkyl benzene sulfonate compositions.
# [10] = Rare Earth Cation 0.01 mM + 2-C10LAS 0.03 mM
# [11] = Rare Earth Cation 0.05 mM + 2-C10LAS 0.15 mM
# [12] = Rare Earth Cation 0.1 mM + 2-C10LAS 0.3 mM
# [13] = Rare Earth Cation 0.1 mM alone, 2-C10LAS 0 mM
# [14] = 3 molecular equivalents of Na surfactant to 1 molecular equivalent of LaCl3
# [15] = inorganic lanthanum salt alone, at least 3 log unit reduction in viable cell count
compound,measurement,setting,value
aluminum,effectiveness as component of the antimicrobial compositions,E. coli [1],ineffective
lanthanum 4-(l'-methylnonyl)benzenesulfonate [LaLAS],Minimum Bactericidal Conc. of LaLAS,Salmonella typhimurium,125 ppm
same,Minimum Bactericidal Conc. of LaLAS,Staph. aureus ATCC 6538,32 ppm
same,Minimum Bactericidal Conc. of LaLAS,Proteus vulgaris,32 ppm
same,Minimum Bactericidal Conc. of LaLAS,[2],125 ppm
same,Minimum Bactericidal Conc. of LaLAS,[3],32 ppm
same,Minimum Bactericidal Conc. of LaLAS,E. coli ATCC 11775,32 ppm
same,Minimum Bactericidal Conc. of LaLAS,Strep. faecalis,32 ppm
same,Minimum Bactericidal Conc. of LaLAS,[4],16 ppm
same,Minimum Bactericidal Conc. of LaLAS,Bacillus subtilis,500 ppm
same,Minimum Bactericidal Conc. of LaLAS,[5],125 ppm
same,Stain Grade,[6]; 2000 ppm in 20% EtOH,0
same,Stain Grade,[6]; 2000 ppm test solution,0.1
same,promotion of stains,[6],does not
same,anti-plaque efficacy,dental plaque,equivalent to chlorhexidine digluconate
[Cl][Pr]([Cl])[Cl] [PrCl3],Log Survivors/ml,E. coli [1]; [10],0
same,Log Survivors/ml,E. coli [1]; [11],0
same,Log Survivors/ml,E. coli [1]; [12],0
same,Log Survivors/ml,E. coli [1]; [13],3
"CCCCCCCCC(C)c1ccc(S(=O)(=O)O)cc1 (stereo not shown) [Compound 2-C10LAS, 4-(l'-methylnonyl)benzenesulfonate]",Minimum Bactericidal Concentration (ppm) E. coli Na salt + LaCl3,E. coli [7]; [14],32 ppm
same,MBC,"E. coli [7]; Escherichia coli, 10 min, surfactant as Na salt alone, read-out: Minimum Bactericidal Concentration (ppm) E. coli as Na salt",> 2000 µg/mL
same,Minimum Bactericidal Concentration (ppm) S. aureus Na salt + LaCl3,S. aureus; [14],32 ppm
same,MBC,"S. aureus; Staphylococcus aureus, 10 min, surfactant as Na salt alone, read-out: Minimum Bactericidal Concentration (ppm) S. aureus as Na salt",2000 µg/mL
same,Log Survivors/ml,"E. coli [1]; Rare Earth Cation 0 mM, 2-C10LAS 0.3 mM alone",6
[Cl][La]([Cl])[Cl] [LaCl3],Log Survivors/ml,E. coli [1]; [10],0
same,Log Survivors/ml,E. coli [1]; [11],0
same,Log Survivors/ml,E. coli [1]; [12],0
same,Log Survivors/ml,E. coli [1]; [13],5
[H]/N=C(\N/C(=N/[H])NCCCCCCNC(=N)NC(=N)Nc1ccc(Cl)cc1)Nc1ccc(Cl)cc1 [Chlorhexidine],Stain Grade,[6]; 2000 ppm test solution,3.2
[Cl][Dy]([Cl])[Cl] [DyCl3],Log Survivors/ml,E. coli [1]; [10],0
same,Log Survivors/ml,E. coli [1]; [11],0
same,Log Survivors/ml,E. coli [1]; [12],0
same,Log Survivors/ml,E. coli [1]; [13],3
O=[N+]([O-])[O-].O=[N+]([O-])[O-].O=[N+]([O-])[O-].[Ce+3] [cerium nitrate],concentration that inhibits Staphylococcus,Staphylococcus,1000 ppm
same,concentration that inhibits molds,molds,1000 ppm
[Cl][Nd]([Cl])[Cl] [NdCl3],Log Survivors/ml,E. coli [1]; [10],1
same,Log Survivors/ml,E. coli [1]; [11],0
same,Log Survivors/ml,E. coli [1]; [12],0
same,Log Survivors/ml,E. coli [1]; [13],3
[Fe] [iron],effectiveness as component of the antimicrobial compositions,E. coli [1],ineffective
CCCCCCCCCCCCc1ccc(S(=O)(=O)O)cc1 [n-C12LAS],antimicrobial activity,[8],rather poor
same,water solubility,[9],rather water-insoluble
[Mg] [magnesium],effectiveness as component of the antimicrobial compositions,E. coli [1],ineffective
CCCCCCCCCCCCCCCC[n+]1ccccc1 [Cetylpyridinium chloride],Stain Grade,[6]; 2000 ppm test solution,2.7
"O.O.O.O.O.O.[Cl-].[Cl-].[Cl-].[La+3] [LaCl3·6H2O, lanthanum chloride hexahydrate]",Minimum Bactericidal Concentration,E. coli [7]; [15],>3500 ppm
same,Minimum Bactericidal Concentration,S. aureus; [15],>3500 ppm
[Ca] [calcium],effectiveness as component of the antimicrobial compositions,E. coli [1],ineffective
[Cl][Yb]([Cl])[Cl] [YbCl3],Log Survivors/ml,E. coli [1]; [10],0
same,Log Survivors/ml,E. coli [1]; [11],0
same,Log Survivors/ml,E. coli [1]; [12],0
same,Log Survivors/ml,E. coli [1]; [13],2
[H]/N=C(\N/C(=N/[H])NCCCCCCNC(=N)NC(=N)Nc1ccc(Cl)cc1)Nc1ccc(Cl)cc1 [chlorhexidine digluconate],promotion of stains,[6],undesirably promotes stains
